Experimental findings from patent US8877707B2, “Inhibitors of HCV NS5A” (Presidio Pharmaceuticals, Inc., priority 2010, dated 2014) are described below.

The subject of this test is HCV genotype 1b replicon in Huh 7 cells. Nature of the test: HCV replicon assay (1b_Huh-Luc/Neo-ET cell line, luciferase readout). To be noted: Hepatitis C virus; Table 1; genotype 1b replicon, Huh 7 cells, 72 h, luciferase; read-out: Inhibition of HCV genotype 1b. The test is classed as cell-based. How it is done: Biological activity of the compounds of the invention was determined using an HCV replicon assay. The 1b_Huh-Luc/Neo-ET cell line persistently expressing a bicistronic genotype 1b replicon in Huh 7 cells was obtained from ReBLikon GMBH. This cell line was used to test compound inhibition using luciferase enzyme activity readout as a measurement of compound inhibition of replicon levels.
On Day 1 (the day after plating), each compound is added in triplicate to the cells. Plates incubated for 72 h prior to running the luciferase assay. Enzyme activity was measured using a Bright-Glo Kit (cat. number E2620) manufactured by Promega Corporation. The following equation was used to generate a percent control value for each compound. % Control=(Average Compound Value/Average Control)*100
The EC50 value was determined using GraphPad Prism and the following equation: Y=Bottom+(Top−Bottom)/(1+10^((Log IC50−X)*HillSlope))
EC50 values of compounds are repeated several times in the replicon assay.

With `COC(=O)N[C@H](C(=O)N1CCC[C@H]1c1nc(-c2ccc3cc(-c4ccc(-c5cnc([C@@H]6CCCN6C(=O)[C@@H](NC(=O)OC)C(C)C)[nH]5)cc4)cnc3c2)c[nH]1)C(C)C` [compound 21], the EC50 was less than 1 nM.

Regarding `COC(=O)N[C@H](C(=O)N1CCC[C@H]1c1nc(-c2ccc3cc(-c4ccc(-c5cnc([C@@H]6CCCN6C(=O)[C@@H](NC(=O)OC)C(C)C)[nH]5)cc4)ncc3c2)c[nH]1)C(C)C` [compound 22], the EC50 was less than 1 nM.

In the case of `COC(=O)N[C@H](C(=O)N1CCC[C@H]1c1ncc(-c2ccc(-c3ccc4cc(-c5c[nH]c([C@@H]6CCCN6C(=O)[C@H](NC(=O)NC(C)(C)C)c6ccccc6)n5)ccc4c3)cc2)[nH]1)C(C)C` [compound 23], the EC50 was less than 1 nM.

For the compound `COC(=O)N[C@H](C(=O)N1CCC[C@H]1c1nc(-c2ccc3cc(-c4ccc(-c5cnc([C@@H]6CCCN6C(=O)[C@H](NC(=O)NC6CC6)c6ccccc6)[nH]5)cc4)ccc3c2)c[nH]1)C(C)C` [compound 24], the EC50 was less than 1 nM.

In the case of `COC(=O)N[C@H](C(=O)N1CCC[C@H]1c1nc(-c2ccc3cc(-c4ccc(-c5cnc([C@@H]6CCCN6C(=O)[C@H](NC(=O)NC(C)(C)C)c6ccccc6)[nH]5)cc4)ccc3c2)c[nH]1)C(C)C` [compound 25], the EC50 was less than 1 nM.

Consider `COC(=O)N[C@H](C(=O)N1CCC[C@H]1c1nc(-c2ccc3nc(-c4ccc(-c5cnc([C@@H]6CCCN6C(=O)[C@H](NC(=O)OC)c6ccccc6)[nH]5)cc4)ccc3c2)c[nH]1)C(C)C` [compound 26], for which the EC50 is less than 1 nM.

For the compound `CCNC(=O)N[C@@H](C(=O)N1CCC[C@H]1c1ncc(-c2ccc(-c3ccc4cc(-c5c[nH]c([C@@H]6CCCN6C(=O)[C@@H](NC(=O)OC)C(C)C)n5)ccc4c3)cc2)[nH]1)c1ccccc1` [compound 27], the EC50 is less than 1 nM.

With `CCNC(=O)N[C@@H](C(=O)N1CCC[C@H]1c1nc(-c2ccc3cc(-c4ccc(-c5cnc([C@@H]6CCCN6C(=O)[C@@H](NC(=O)OC)C(C)C)[nH]5)cc4)ccc3c2)c[nH]1)c1ccccc1` [compound 28], the EC50 was less than 1 nM.

For `COC(=O)N[C@H](C(=O)N1CCC[C@H]1c1ncc(-c2ccc(-c3ccc4cc(-c5c[nH]c([C@@H]6CCCN6C(=O)[C@H](NC(=O)NC6CC6)c6ccccc6)n5)ccc4c3)cc2)[nH]1)C(C)C` [compound 29], the EC50 was less than 1 nM.

As to `COC(=O)N[C@H](C(=O)N1CCC[C@H]1c1nc(-c2ccc3nc(-c4ccc(-c5cnc([C@@H]6CCCN6C(=O)[C@H](NC(=O)OC(C)(C)C)c6ccccc6)[nH]5)cc4)ccc3c2)c[nH]1)C(C)C` [compound 30], the EC50 was less than 1 nM.

As for `CNC(=O)N[C@@H](C(=O)N1CCC[C@H]1c1ncc(-c2ccc(-c3ccc4cc(-c5c[nH]c([C@@H]6CCCN6C(=O)[C@@H](NC(=O)OC)C(C)C)n5)ccc4n3)cc2)[nH]1)c1ccccc1` [compound 31], the EC50 is less than 1 nM.

Take `COC(=O)N[C@H](C(=O)N1CCC[C@H]1c1nc(-c2cnc3cc(-c4ccc(-c5cnc([C@@H]6CCCN6C(=O)[C@H](NC(=O)OC)c6ccccc6)[nH]5)cc4)ccc3c2)c[nH]1)C(C)C` [compound 32]: the EC50 is less than 1 nM.

Consider `CCNC(=O)N[C@@H](C(=O)N1CCC[C@H]1c1ncc(-c2ccc(-c3ccc4cc(-c5c[nH]c([C@@H]6CCCN6C(=O)[C@@H](NC(=O)OC)C(C)C)n5)ccc4n3)cc2)[nH]1)c1ccccc1` [compound 33], for which the EC50 is less than 1 nM.

With `COC(=O)N[C@H](C(=O)N1CCC[C@H]1c1nc(-c2ccc3nc(-c4ccc(-c5cnc([C@@H]6CCCN6C(=O)[C@H](NC(=O)NC6CC6)c6ccccc6)[nH]5)cc4)ccc3c2)c[nH]1)C(C)C` [compound 34], the EC50 was less than 1 nM.

On to `COC(=O)N[C@H](C(=O)N1CCC[C@H]1c1ncc(-c2ccc(-c3ccc4cc(-c5c[nH]c([C@@H]6CCCN6C(=O)[C@H](NC(=O)OC(C)(C)C)c6ccccc6)n5)ccc4n3)cc2)[nH]1)C(C)C` [compound 35], for which the EC50 was less than 1 nM.

For `CNC(=O)N[C@@H](C(=O)N1CCC[C@H]1c1nc(-c2ccc3nc(-c4ccc(-c5cnc([C@@H]6CCCN6C(=O)[C@@H](NC(=O)OC)C(C)C)[nH]5)cc4)ccc3c2)c[nH]1)c1ccccc1` [compound 36], the EC50 was less than 1 nM.

In the case of `CCNC(=O)N[C@@H](C(=O)N1CCC[C@H]1c1nc(-c2ccc3nc(-c4ccc(-c5cnc([C@@H]6CCCN6C(=O)[C@@H](NC(=O)OC)C(C)C)[nH]5)cc4)ccc3c2)c[nH]1)c1ccccc1` [compound 37], the EC50 is less than 1 nM.

As to `COC(=O)N[C@H](C(=O)N1CCC[C@H]1c1ncc(-c2ccc(-c3ccc4cc(-c5c[nH]c([C@@H]6CCCN6C(=O)[C@H](NC(=O)NC6CC6)c6ccccc6)n5)ccc4n3)cc2)[nH]1)C(C)C` [compound 38], the EC50 was less than 1 nM.

On to `COC(=O)N[C@H](C(=O)N1CCC[C@H]1c1ncc(-c2ccc(-c3ccc4cc(-c5c[nH]c([C@@H]6CCCN6C(=O)[C@@H](NC(=O)OC)C6CCOCC6)n5)ccc4n3)cc2)[nH]1)C(C)C` [compound 39], for which the EC50 was less than 1 nM.

Regarding `COC(=O)N[C@H](C(=O)N1CCC[C@H]1c1ncc(-c2ccc(-c3ccc4cc(-c5c[nH]c([C@@H]6CCCN6C(=O)[C@@H](NC(=O)OC)[C@@H](C)OC)n5)ccc4n3)cc2)[nH]1)C(C)C` [compound 40], the EC50 is less than 1 nM.

On to `COC(=O)N[C@@H](C)C(=O)N1CCC[C@H]1c1nc(-c2ccc3nc(-c4ccc(-c5cnc([C@@H]6CCCN6C(=O)[C@@H](NC(=O)OC)C(C)C)[nH]5)cc4)ccc3c2)c[nH]1` [compound 41], for which the EC50 was less than 1 nM.

Take `COC(=O)N[C@H](C(=O)N1CCC[C@H]1c1nc(-c2ccc3nc(-c4ccc(-c5cnc([C@@H]6CCCN6C(=O)[C@@H](NC(=O)OC)C6CCOCC6)[nH]5)cc4)ccc3c2)c[nH]1)C(C)C` [compound 42]: the EC50 is less than 1 nM.

In the case of `COC(=O)N[C@H](C(=O)N1CCC[C@H]1c1nc(-c2ccc3nc(-c4ccc(-c5cnc([C@@H]6CCCN6C(=O)[C@@H](NC(=O)OC)[C@@H](C)OC)[nH]5)cc4)ccc3c2)c[nH]1)C(C)C` [compound 43], the EC50 is less than 1 nM.

On to `COC(=O)N[C@@H](C)C(=O)N1CCC[C@H]1c1ncc(-c2ccc(-c3ccc4cc(-c5c[nH]c([C@@H]6CCCN6C(=O)[C@@H](NC(=O)OC)C(C)C)n5)ccc4n3)cc2)[nH]1` [compound 44], for which the EC50 was less than 1 nM.

In the case of `COC(=O)N[C@H](C(=O)N1CCC[C@H]1c1ncc(-c2ccc(-c3ccc4cc(-c5c[nH]c([C@@H]6CCCN6C(=O)[C@H](NC(=O)OC)c6ccccc6)n5)cnc4c3)cc2)[nH]1)C(C)C` [compound 45], the EC50 is less than 1 nM.

`COC(=O)N[C@H](C(=O)N1CCC[C@H]1c1nc(-c2ccc3cc(-c4ccc(-c5cnc([C@@H]6CCCN6C(=O)[C@@H](NC(=O)OC)C6CCOCC6)[nH]5)cc4)ccc3c2)c[nH]1)C(C)C` [compound 46]: the EC50 was less than 1 nM.

Regarding `COC(=O)N[C@H](C(=O)N1CCC[C@H]1c1ncc(-c2ccc(-c3ccc4cc(-c5c[nH]c([C@@H]6CCCN6C(=O)[C@@H](NC(=O)OC)C6CCOCC6)n5)ccc4c3)cc2)[nH]1)C(C)C` [compound 47], the EC50 was less than 1 nM.

With `COC(=O)N[C@H](C(=O)N1CCC[C@H]1c1ncc(-c2ccc(-c3ccc4cc(-c5c[nH]c([C@@H]6CCCN6C(=O)[C@H](NC(=O)OC)c6ccccc6)n5)ccc4c3)nc2)[nH]1)C(C)C` [compound 48], the EC50 was less than 1 nM.

As to `COC(=O)N[C@H](C(=O)N1CCC[C@H]1c1nc(-c2cnc3cc(-c4ccc(-c5cnc([C@@H]6CCCN6C(=O)[C@@H](NC(=O)OC)C6CCOCC6)[nH]5)cc4)ccc3c2)c[nH]1)C(C)C` [compound 49], the EC50 was less than 1 nM.

In the case of `COC(=O)N[C@H](C(=O)N1CCC[C@H]1c1ncc(-c2ccc(-c3ccc4cc(-c5c[nH]c([C@@H]6CCCN6C(=O)[C@@H](NC(=O)OC)C6CCOCC6)n5)cnc4c3)cc2)[nH]1)C(C)C` [compound 50], the EC50 is less than 1 nM.

For the compound `COC(=O)N[C@H](C(=O)N1CCC[C@H]1c1nc(-c2ccc3cc(-c4ccc(-c5cnc([C@@H]6CCCN6C(=O)[C@@H](NC(=O)OC)C6CCOCC6)[nH]5)cn4)ccc3c2)c[nH]1)C(C)C` [compound 51], the EC50 was less than 1 nM.

In the case of `COC(=O)N[C@H](C(=O)N1CCC[C@H]1c1ncc(-c2ccc(-c3ccc4cc(-c5c[nH]c([C@@H]6CCCN6C(=O)[C@@H](NC(=O)OC)C6CCOCC6)n5)ccc4c3)nc2)[nH]1)C(C)C` [compound 52], the EC50 is less than 1 nM.

As for `COC(=O)N[C@H](C(=O)N1CCC[C@H]1c1nc(-c2ccc3nc(-c4ccc(-c5cnc([C@@H]6CCCN6C(=O)[C@@H](NC(=O)OC)C(C)C)[nH]5)nc4)ccc3c2)c[nH]1)C(C)C` [compound 53], the EC50 is less than 1 nM.

`COC(=O)N[C@@H](C(=O)N1CCC[C@H]1c1nc(-c2ccc3nc(-c4ccc(-c5cnc([C@@H]6CCCN6C(=O)[C@H](NC(=O)OC)c6ccccc6)[nH]5)nc4)ccc3c2)c[nH]1)c1ccccc1` [compound 54]: the EC50 was less than 1 nM.

With `COC(=O)N[C@H](C(=O)N1CCC[C@H]1c1nc(-c2ccc3cc(-c4ccc(-c5cnc([C@@H]6CCCN6C(=O)[C@H](NC(=O)OC)c6ccccc6)[nH]5)cn4)ccc3c2)c[nH]1)C(C)C` [compound 56], the EC50 was less than 1 nM.

In the case of `COC(=O)N[C@H](C(=O)N1CCC[C@H]1c1nc(-c2cnc3cc(-c4ccc(-c5cnc([C@@H]6CCCN6C(=O)[C@@H](NC(=O)OC)C(C)C)[nH]5)cc4F)ccc3c2)c[nH]1)C(C)C` [compound 57], the EC50 was less than 1 nM.

In the case of `COC(=O)N[C@H](C(=O)N1CCC[C@H]1c1ncc(-c2ccc(-c3ccc4cc(-c5c[nH]c([C@@H]6CCCN6C(=O)[C@H](NC(=O)OC)c6ccccc6)n5)cnc4c3)c(F)c2)[nH]1)C(C)C` [compound 58], the EC50 was less than 1 nM.
